Earlier results, collected in US9828409B2, “Bridged-cyclo-ProTides as prodrugs of therapeutic nucleosides and nucleotides” (priority 2014, dated 2017).

Settings: patients in clinical trials

- level of liver enzymes in patients: elevated level of liver enzymes
SMILES: CCOc1nc(N)nc2c1ncn2[C@@H]1O[C@@H]2COP(=O)(OC(C)C)O[C@H]2[C@@]1(C)F (stereo partly shown) [PSI-352938]
